{"source": "paper PMC8097335", "about": "“A High‐Affinity Calmodulin‐Binding Site in the CyaA Toxin Translocation Domain is Essential for Invasion of Eukaryotic Cells” (Advanced Science, 2021)", "origin": "cited, not measured here", "molecular_target": "CaM", "conditions": "quoted without reference; read-out: Kd of AC:CaM; cited from earlier work"}
{"substance": "AC: N-terminal adenyl cyclase catalytic domain of CyaA, first 364 residues", "values": [{"measurement": "Kd", "result": "~0.1", "unit": "nM"}]}
